# Results reported in BindingDB's records for doi:10.1007/s00044-010-9377-3 (n/a, 2011).
# Experiment: Inhibition of rat intestinal alpha-glucosidase using p-nitrophenyl- alpha-D-glucopyranoside as substrate preincubated for 5 min before addition of substrate measured after 10 min
row,IC50,SMILES
1,8.8 µM,"O=Cc1cc(Br)ccc1O [US8614253,3-44]"
2,22.7 µM,O=[N+]([O-])c1ccc(/N=C/c2ccccc2O)cc1
3,74.1 µM,COc1ccc(/N=C/c2cc(Br)ccc2O)cc1
